System: bivalve mollusks
Test: Water screening with bivalve mollusks: shell gape and Degree of Alarm (DOA) on toxicant exposure
Assay type: in vivo
Description: Further calibration of the system is performed after one or more mollusk chambers are properly installed. The digital circuitry or computer 39 then monitors the gape of the mollusk during approximately the first three days after installation. From the gape values derived during this period, the computer derives a natural maximum gape value for the individual mollusk. Subsequent calculations based on output from the mollusk chamber 15 are based on the percentage of gape, i.e., the percentage of the maximum gape output value that the presently detected gape output value represents.
When the system 3 contains a number of mollusk chambers 15, the individual mollusk percentage gape data for all of the mollusks of the system is totaled, and the average percentage gape value calculated periodically per sampling interval by computer 38. This mean data value Gi is the variable used as the mollusk output data for determining if toxicants are present in the water being screened.
In the present specification, Gi means the current average mollusk gape data, Gi−i means the most recent earlier mollusk output value, Gi−2 the next earlier mollusk output variable, etc. The oldest of the gape values is Gi−n+1. Preferably, the set of data values Gi−n+1 to Gi are stored in a FIFO (first-in, first-out) stack data structure in the computer doing the analysis. The stack acts as a shift register, shifting earlier data values as the new data value Gi is acquired. Preferably the value of n is 30, and the data values G are acquired every half-second.
According to an aspect of the invention, the variance over time of the gape values is one of the best statistical indicators of the pumping of the mollusk. By the term variance, what is meant is a determination of the variability of the gape values from a mean value, which may be determined or expressed using a variety of functions. Particularly preferred, however, is the classical calculation of variance as:
In a basic method for toxicant detection, DOA is calculated continuously using the formula DOA=(V·|R|)/M wherein V is the mean variance in gape over a recent period of time, preferably 30 seconds, R is the mean regression of the gape over the period (regression herein meaning the slope of the best-fit line through the data values of the time period). M may be the traveling mean as defined above, or may be the mean gape taken over another longer period, preferably about one hour.
An implementation of this method is shown by the graphs of FIGS. 7 to 10. Water being screened by a system as described previously was loaded with sulphuric acid, resulting in a drop in pH as shown in the graph of FIG. 7.
When the variance is below this threshold value, a first, less sensitive function of the gape data values is used to calculate the DOA value. Such a function might be a linear calculation such as DOA=(1−Gi)*10 which would yield a DOA value between 0 and 10, with 10 corresponding to the mollusk completely closing its shell and strongly indicating presence of toxicant.
When the variance value is greater than or equal to the threshold value, the DOA value may be calculated by a different function which amplifies the calculation from the closing of the shell during the period of high variance. Particularly preferred is a more sensitive high-variance function: DOA=f(Gi)+V/K
An implementation of such a DOA method using a Logistic calculation, with a variance factor added for variances over 50, is illustrated by the graphs of FIGS. 12 to 16.
In this example, a system as in Example 3 was used, only the toxicant introduced was copper (as aqueous CuSO4), as shown in FIG. 17.

With O=S(=O)([O-])[O-].[Cu+2] [copper, CuSO4] the “gape when DOA exceeded 8” value (copper (aqueous CuSO4), between 0.5 and 1.0 hours) was 50% and the DOA values (copper (aqueous CuSO4), system as in Example 3, between 0.5 and 1.0 hours, copper concentration still relatively low, FIG. 21) was “exceed 8 out of a possible 10”.
In the case of [Cl-].[Na+] [chloride, NaCl], the DOA output (chloride, Logistic calculation with variance factor for variances over 50, at 0.5 hours, chloride concentration still relatively low, FIG. 16) is reported as “greater than 5” and the “raw gape data, decreasing over time” value (gradually increasing concentration of chloride (aqueous NaCl), FIG. 13) is reported as “less than 40 % of normal maximum gape”.
O=S(=O)(O)O [sulphuric acid] was tested, and the “DOA (Degree of Alarm) values, spike” value (sulphuric acid, DOA=(V·|R|)/M, appears before 200 minutes, FIG. 10) was “greater than 100”, the “percentage gape at the variance spike” value (sulphuric acid, variance spikes shortly before 200 minutes, FIG. 9) was no more than 40% and the “average percentage gape of the mollusks” value (water loaded with sulphuric acid (pH drop), shortly after 200 minutes, FIG. 8) was “less than 10 % of the normal maximum”.

From patent US7330794B2, “Water monitoring system using bivalve mollusks” (Aqueous Solutions, Inc., priority 2000, dated 2008)
